Test results taken from US20260234150A1, “COMPOUND FOR INHIBITING NLRP3, PREPARATION METHOD, AND USE” (DOVETREE MEDICINES UNUS, INC., priority 2023, published 2026).

Experiments:
[1] = target: T1, His6-Flag-TEV-NLRP3 (134-1036) (Homo sapiens, UniProt Q96P20); assay: NLRP3 fluorescence polarization (FP) binding assay, competition with probe NP3-301; conditions: competition with NP3-301 for binding to NLRP3 (134-1036), 30 nM protein
T1 construct: fused on or other part: N-terminal His6 tag, Flag tag and TEV cleavage site
T1 sequence (Q96P20 134-1036 limits assumed): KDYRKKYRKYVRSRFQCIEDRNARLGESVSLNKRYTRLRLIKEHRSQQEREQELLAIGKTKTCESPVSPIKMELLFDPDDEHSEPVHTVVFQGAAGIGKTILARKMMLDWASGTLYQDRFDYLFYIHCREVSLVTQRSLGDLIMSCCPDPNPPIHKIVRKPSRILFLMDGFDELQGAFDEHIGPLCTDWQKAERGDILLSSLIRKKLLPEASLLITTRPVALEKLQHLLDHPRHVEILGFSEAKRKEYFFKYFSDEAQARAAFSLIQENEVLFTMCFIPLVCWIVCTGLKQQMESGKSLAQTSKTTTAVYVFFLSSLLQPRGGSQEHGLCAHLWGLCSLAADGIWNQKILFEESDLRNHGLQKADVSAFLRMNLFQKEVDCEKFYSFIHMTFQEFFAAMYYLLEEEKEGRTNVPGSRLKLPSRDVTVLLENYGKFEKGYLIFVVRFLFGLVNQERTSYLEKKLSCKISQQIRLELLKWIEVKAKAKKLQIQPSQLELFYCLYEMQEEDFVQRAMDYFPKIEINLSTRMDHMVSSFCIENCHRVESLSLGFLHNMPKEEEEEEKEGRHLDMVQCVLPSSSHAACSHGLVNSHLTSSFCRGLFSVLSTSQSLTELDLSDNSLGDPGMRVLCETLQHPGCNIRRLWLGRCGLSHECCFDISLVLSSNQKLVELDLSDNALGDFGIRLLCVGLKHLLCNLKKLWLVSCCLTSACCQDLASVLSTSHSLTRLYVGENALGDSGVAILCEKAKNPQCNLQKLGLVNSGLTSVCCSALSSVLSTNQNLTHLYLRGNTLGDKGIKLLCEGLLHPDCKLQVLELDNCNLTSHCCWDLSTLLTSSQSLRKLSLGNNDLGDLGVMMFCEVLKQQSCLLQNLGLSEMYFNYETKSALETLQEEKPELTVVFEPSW
Outline: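 Compound was preincubated 60 min at room temperature with NLRP3 protein (30 nM final) in 50 mM Hepes pH 7.4, 150 mM NaCl, 2.5 mM MgCl2, 1 mM TCEP, 100 μM ATP. Probe NP3-301 (0.5 nM final) was then added for 30 min. Fluorescence polarization was read at ex 485/em 535 nm, and IC50 was obtained by four-parameter logistic fit.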

CYP2C19 = target: T2, CYP2C19 (Homo sapiens, UniProt P33261); assay: CYP450 enzyme inhibition in human liver microsomes, CYP2C19; format: in vitro ADME; conditions: substrate Mephenytoin, read-out: Inhibitory activity IC50 (μM) CYP2C19
T2 construct: (CYP2C19 uses 0.2 mg/mL liver microsome); tissue BioIVT IHG; host or cells: human liver microsomes
T2 sequence (P33261 whole entry): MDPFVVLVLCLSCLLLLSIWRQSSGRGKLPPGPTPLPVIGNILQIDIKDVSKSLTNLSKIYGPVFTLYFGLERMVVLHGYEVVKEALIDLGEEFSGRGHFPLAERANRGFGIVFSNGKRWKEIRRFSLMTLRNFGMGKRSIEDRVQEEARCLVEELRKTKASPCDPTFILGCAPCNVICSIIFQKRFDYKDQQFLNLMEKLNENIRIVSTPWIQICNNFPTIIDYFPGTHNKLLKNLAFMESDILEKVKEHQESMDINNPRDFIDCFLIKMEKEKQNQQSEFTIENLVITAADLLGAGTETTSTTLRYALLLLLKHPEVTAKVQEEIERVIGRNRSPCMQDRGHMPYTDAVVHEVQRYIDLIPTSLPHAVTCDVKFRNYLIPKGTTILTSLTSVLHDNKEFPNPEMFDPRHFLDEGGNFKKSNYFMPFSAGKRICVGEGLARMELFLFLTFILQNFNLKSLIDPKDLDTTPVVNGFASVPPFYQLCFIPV
Description: (§1) This experiment incubates the compound, liver microsomes and different CYP subtype enzyme substrates in a 37° C. water bath to measure the amount of substrate metabolites produced and evaluate the inhibitory effect of the compound of the present disclosure on CYP enzymes based on the IC50 value.
(§2) i. The compound was diluted to 0, 0.02 mM, 0.06 mM, 0.2 mM, 0.6 mM, 2 mM and 6 mM concentrations with DMSO (Aladdin, catalog number: D103273-500 ml).
(§3) ii. The enzyme substrate solutions of each CYP subtype were prepared by phosphate buffer (sigma: V900050-500G).
(§4) iii. Sample incubation. […] After centrifugation at 4000 rpm and 4° C. for 40 min, the supernatant was diluted with pure water according to the response of the substrate metabolites and then detected by UPLC-MS/MS (Sciex, Q-Trap 4500). […]
(§5) The inhibitory effect of the compound on each P450 enzyme in human liver microsomes was calculated as the percentage of reduced metabolite formation compared with the non-inhibitory control (i.e., blank DMSO). The IC50 value for each P450 enzyme in human liver microsomes was calculated using the logarithm of the remaining activity and the inhibitor concentration using Graphpad Prism software. […]

CYP2D6 = target: T3, CYP2D6 (Homo sapiens, UniProt P10635); assay: CYP450 enzyme inhibition in human liver microsomes, CYP2D6; format: in vitro ADME; conditions: substrate Dextromethorphan, read-out: Inhibitory activity IC50 (μM) CYP2D6
T3 construct: 0.05 mg/mL liver microsome (BioIVT, IHG) phosphate buffer solution; tissue BioIVT IHG; host or cells: human liver microsomes
T3 sequence (P10635 whole entry): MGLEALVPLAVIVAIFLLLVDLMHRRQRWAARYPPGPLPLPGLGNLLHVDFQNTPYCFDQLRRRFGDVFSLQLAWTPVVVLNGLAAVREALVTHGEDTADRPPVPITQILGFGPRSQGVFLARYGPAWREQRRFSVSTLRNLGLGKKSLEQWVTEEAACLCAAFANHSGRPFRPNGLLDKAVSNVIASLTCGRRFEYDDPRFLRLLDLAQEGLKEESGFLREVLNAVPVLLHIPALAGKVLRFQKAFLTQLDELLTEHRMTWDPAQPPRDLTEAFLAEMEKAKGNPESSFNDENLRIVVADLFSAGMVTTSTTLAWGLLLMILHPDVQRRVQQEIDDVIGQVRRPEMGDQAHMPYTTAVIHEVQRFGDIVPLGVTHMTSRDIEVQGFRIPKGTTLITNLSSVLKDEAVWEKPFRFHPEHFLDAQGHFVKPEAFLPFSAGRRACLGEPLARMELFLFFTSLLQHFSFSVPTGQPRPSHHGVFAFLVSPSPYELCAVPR
Description: as §1, §2, §3, §4, §5

`CC(=O)N1CCOC[C@H]1CNc1nc2nc(-c3c(C)cc(C(F)(F)F)cc3O)ccc2o1` [Compound 111] showed an IC50 [1] of at most 0.1 µM, an IC50 (CYP2C19) of over 30 µM and an IC50 (CYP2D6) of over 30 µM.
